What was measured:
mesenteric arterioles = experiment: Microvascular endothelial function in Ob/Ob obese mice (mesenteric arterioles, Ach / SNP relaxation); assay type: in vivo
Protocol: (§1) PSS and KPSS solutions were configured according to the instructions and used at the same time of the day. The PSS solution was taken out before the start of the experiment and pre-oxygenated for about 20 min. The ApoE−/− mice, which were fed with high-fat and simultaneously administered for 10 weeks, were anesthetized with pentobarbital sodium. The mice were supine and fixed. The abdominal cavity was opened along the median line. The mesenteric vascular bed was isolated and placed in the pre-oxygenated 20-minute PSS buffer. Under a stereomicroscope, a third-order mesenteric artery with a length of about 3 mm was carefully isolated. Firstly, the blood vessel was fixed to a P1 glass cannula and the coil was tightened. Note: the proximal end should be connected to the P1 end, and the P2 end vessel should be fixed and the coil should be tightened. The Chamber was placed on a objective table of the microscope and the data connection between Chamber and Interface was checked. The bath cover was covered and the oxygen was introduced, to exhaust air in the pipeline. The blood vessel image was found under the microscope and then the microscope was turned to camera mode. (The knob on the side of the eyepiece was rotated to graph.) MyoVIEW software was opened. The Camera window Capture was clicked to display the blood vessel image. The equilibration of blood vessels slowly rose from 10 mmHg to 60 mmHg, and each step was 300 s. After the equilibration procedure was completed, the solution in the bath was drained. Blood vessels were stimulated (10 ml) for 2 min using a 37° C. pre-heated KPSS solution, and changes in vasoconstriction were observed, and the blood vessels were then eluted using the PSS solution to baseline. The blood vessels were equilibrated at 60 mmHg 37° C. for 45 minutes, during which time the fluid was replaced every 20 minutes. The experiment was started: observing the vasodilatory response induced by 10^−10 to 10^−5 M Ach after pre-contraction with 2 μM phenylephrine, to evaluate the effect of the drugs on the vascular endothelial function. At the end of the experiment, the fresh 37° C. pre-heated PSS buffer was replaced for equilibration for 30 min, and the 10^−10M to 10^−3 M sodium nitroprusside were given to induce vasodilatory response after pre-contraction with 2 μM phenylephrine, to evaluate the effect of the drugs on vascular smooth muscle function. LD1 was the diameter of blood vessel after relaxation by administration of different concentrations of ACh or sodium nitroprusside, LD2 was the diameter of blood vessels after pre-contraction with phenylephrine, and LD3 represented the maximum diastolic diameter of blood vessel without any stimulant.
(§2) The relaxation response to Ach and sodium nitroprusside after pre-contraction with phenylephrine was expressed as the percentage increase in the vascular diameter: % Relaxation=(LD1−LD2)/(LD3−LD2)×100.
[…] The changes of food intake and body weight were recorded, and routine biochemical indicators such as blood lipids and blood glucose, etc. were measured. After 9 weeks, 3 animals were taken from each group and the mesenteric arterioles were taken for measurement of vascular endothelial function in the same manner as in Example 2.

[1] = tested on: third-order mesenteric artery; experiment: Mesenteric microvascular endothelial function in ApoE−/− mice (pressure myography, Ach / SNP relaxation); assay type: in vivo
Protocol: After 1 week of adaptive feeding, the animals were randomly divided into 7 groups according to body weight: normal control group, model control group A769662 (30 mg/kg) administration group, metformin (260 mg/kg) administration group, IMM-H007 low, medium, and high administration groups (50, 100, 200 mg/kg), 8 in each group, and were given a high-fat diet (78.6% basal diet, 10% lard, 1.0% cholesterol, 10% egg yolk powder, and 0.4% bile salt), and simultaneously administered intragastrically at a dose of 0.1 ml/10 g body weight, and were continuously administered and fed for 8 weeks to establish an atherosclerosis model.
as §1, §2

Compound: CC(=O)OCC1OC(n2cnc3c(Nc4cccc(O)c4)ncnc32)C(OC(C)=O)C1OC(C)=O (centres unmarked) [IMM-H007, 2′,3,′ 5′-triacetyl-N^6(3-hydroxyphenyl)adenosine]
- microvascular endothelial function (mesenteric arterioles; 400 mg/kg, 9 weeks): improve
- acetylcholine endothelium-dependent relaxation of microvascular (mesenteric arterioles; 400 mg/kg, 1 × 10^−5 M Ach): 93.6 ± 1.1 %
- acetylcholine endothelium-dependent relaxation of microvascular (mesenteric arterioles; 400 mg/kg, 1 × 10^−6 M Ach): 82.1 ± 9.3 %
- acetylcholine endothelium-dependent relaxation of microvascular (mesenteric arterioles; 400 mg/kg, 1 × 10^−7 M Ach): 71.7 ± 13.5 %
- acetylcholine endothelium-dependent relaxation of microvascular (mesenteric arterioles; 400 mg/kg, 1 × 10^−8 M Ach): 57.6 ± 15.8 %
- acetylcholine endothelium-dependent relaxation of microvascular (mesenteric arterioles; 400 mg/kg, 1 × 10^−9 M Ach): 32.3 ± 18.9%
- acetylcholine endothelium-dependent relaxation of microvascular (mesenteric arterioles; 400 mg/kg, 1 × 10^−10 M Ach): 0.96 ± 0.85%
- sodium nitroprusside endothelium-independent relaxation of microvascular (mesenteric arterioles; 1 × 10^−3 M SNP): 95.0 ± 3.8%
- sodium nitroprusside endothelium-independent relaxation of microvascular (mesenteric arterioles; 1 × 10^−4 M SNP): 94.3 ± 2.3%
- sodium nitroprusside endothelium-independent relaxation of microvascular (mesenteric arterioles; 1 × 10^−5 M SNP): 91.4 ± 2.5%
- sodium nitroprusside endothelium-independent relaxation of microvascular (mesenteric arterioles; 1 × 10^−6 M SNP): 80.8 ± 6.9%
- sodium nitroprusside endothelium-independent relaxation of microvascular (mesenteric arterioles; 1 × 10^−7 M SNP): 68.3 ± 5.1%
- sodium nitroprusside endothelium-independent relaxation of microvascular (mesenteric arterioles; 1 × 10^−8 M SNP): 58.9 ± 3.2%
- sodium nitroprusside endothelium-independent relaxation of microvascular (mesenteric arterioles; 1 × 10^−9 M SNP): 43.5 ± 4.1%
- sodium nitroprusside endothelium-independent relaxation of microvascular (mesenteric arterioles; 1 × 10^−10 M SNP): 16.9 ± 6.3%
- sodium nitroprusside endothelium-independent relaxation of microvascular ([1]; 50 mg/kg, 1 × 10^−3 M SNP): 96.5 ± 6.3%
- sodium nitroprusside endothelium-independent relaxation of microvascular ([1]; 50 mg/kg, 1 × 10^−4 M SNP): 80.3 ± 12.1%
- acetylcholine-induced endothelium-dependent relaxation of microvascular ([1]; 50 mg/kg, 1 × 10^−5 M Ach): 95.0 ± 4.4 %
- sodium nitroprusside endothelium-independent relaxation of microvascular ([1]; 50 mg/kg, 1 × 10^−5 M SNP): 74.5 ± 12.8%
- acetylcholine-induced endothelium-dependent relaxation of microvascular ([1]; 50 mg/kg, 1 × 10^−6 M Ach): 87.3 ± 5.0 %
- sodium nitroprusside endothelium-independent relaxation of microvascular ([1]; 50 mg/kg, 1 × 10^−6 M SNP): 66.4 ± 11.6%
- acetylcholine-induced endothelium-dependent relaxation of microvascular ([1]; 50 mg/kg, 1 × 10^−7 M Ach): 48.7 ± 12.8%
- sodium nitroprusside endothelium-independent relaxation of microvascular ([1]; 50 mg/kg, 1 × 10^−7 M SNP): 60.9 ± 8.5%
- acetylcholine-induced endothelium-dependent relaxation of microvascular ([1]; 50 mg/kg, 1 × 10^−8 M Ach): 29.3 ± 21.8%
- sodium nitroprusside endothelium-independent relaxation of microvascular ([1]; 50 mg/kg, 1 × 10^−8 M SNP): 52.9 ± 14.2%
- acetylcholine-induced endothelium-dependent relaxation of microvascular ([1]; 50 mg/kg, 1 × 10^−9 M Ach): 12.9 ± 12.6%
- sodium nitroprusside endothelium-independent relaxation of microvascular ([1]; 50 mg/kg, 1 × 10^−9 M SNP): 43.9 ± 18.2%
- acetylcholine-induced endothelium-dependent relaxation of microvascular ([1]; 50 mg/kg, 1 × 10^−10 M Ach): 5.0 ± 5.1%
- sodium nitroprusside endothelium-independent relaxation of microvascular ([1]; 50 mg/kg, 1 × 10^−10 M SNP): 19.9 ± 10.1%
- microvascular endothelial dysfunction caused by high fat ([1]; 50 mg/kg, compared with the model control group): significantly improve
- sodium nitroprusside endothelium-independent relaxation of microvascular ([1]; 100 mg/kg, 1 × 10^−3 M SNP): 96.5 ± 3.6%
- sodium nitroprusside endothelium-independent relaxation of microvascular ([1]; 100 mg/kg, 1 × 10^−4 M SNP): 87.5 ± 10.9%
- acetylcholine-induced endothelium-dependent relaxation of microvascular ([1]; 100 mg/kg, 1 × 10^−5 M Ach): 93.9 ± 12.9 %
- sodium nitroprusside endothelium-independent relaxation of microvascular ([1]; 100 mg/kg, 1 × 10^−5 M SNP): 78.4 ± 13.0%
- acetylcholine-induced endothelium-dependent relaxation of microvascular ([1]; 100 mg/kg, 1 × 10^−6 M Ach): 82.9 ± 8.5 %
- sodium nitroprusside endothelium-independent relaxation of microvascular ([1]; 100 mg/kg, 1 × 10^−6 M SNP): 64.6 ± 12.2%
- acetylcholine-induced endothelium-dependent relaxation of microvascular ([1]; 100 mg/kg, 1 × 10^−7 M Ach): 43.1 ± 21.8%
- sodium nitroprusside endothelium-independent relaxation of microvascular ([1]; 100 mg/kg, 1 × 10^−7 M SNP): 51.5 ± 17.9%
- acetylcholine-induced endothelium-dependent relaxation of microvascular ([1]; 100 mg/kg, 1 × 10^−8 M Ach): 18.6 ± 17.2%
- sodium nitroprusside endothelium-independent relaxation of microvascular ([1]; 100 mg/kg, 1 × 10^−8 M SNP): 44.9 ± 21.9%
- acetylcholine-induced endothelium-dependent relaxation of microvascular ([1]; 100 mg/kg, 1 × 10^−9 M Ach): 10.2 ± 12.0%
- sodium nitroprusside endothelium-independent relaxation of microvascular ([1]; 100 mg/kg, 1 × 10^−9 M SNP): 33.9 ± 23.5%
- acetylcholine-induced endothelium-dependent relaxation of microvascular ([1]; 100 mg/kg, 1 × 10^−10 M Ach): 2.37 ± 3.4%
- sodium nitroprusside endothelium-independent relaxation of microvascular ([1]; 100 mg/kg, 1 × 10^−10 M SNP): 11.9 ± 13.5%
- acetylcholine-induced endothelium-dependent relaxation response ([1]; 100 mg/kg, compared with the model control group): significantly improve
- sodium nitroprusside endothelium-independent relaxation of microvascular ([1]; 200 mg/kg, 1 × 10^−3 M SNP): 96.9 ± 2.9%
- sodium nitroprusside endothelium-independent relaxation of microvascular ([1]; 200 mg/kg, 1 × 10^−4 M SNP): 91.3 ± 6.2%
- acetylcholine-induced endothelium-dependent relaxation of microvascular ([1]; 200 mg/kg, 1 × 10^−5 M Ach): 96.9 ± 14.2 %
- sodium nitroprusside endothelium-independent relaxation of microvascular ([1]; 200 mg/kg, 1 × 10^−5 M SNP): 75.3 ± 12.6%
- acetylcholine-induced endothelium-dependent relaxation of microvascular ([1]; 200 mg/kg, 1 × 10^−6 M Ach): 73.3 ± 17.5 %
- sodium nitroprusside endothelium-independent relaxation of microvascular ([1]; 200 mg/kg, 1 × 10^−6 M SNP): 58.0 ± 21.3%
- acetylcholine-induced endothelium-dependent relaxation of microvascular ([1]; 200 mg/kg, 1 × 10^−7 M Ach): 42.2 ± 20.8%
- sodium nitroprusside endothelium-independent relaxation of microvascular ([1]; 200 mg/kg, 1 × 10^−7 M SNP): 44.9 ± 27.8%
- acetylcholine-induced endothelium-dependent relaxation of microvascular ([1]; 200 mg/kg, 1 × 10^−8 M Ach): 32.0 ± 20.1%
- sodium nitroprusside endothelium-independent relaxation of microvascular ([1]; 200 mg/kg, 1 × 10^−8 M SNP): 39.4 ± 24.2%
- acetylcholine-induced endothelium-dependent relaxation of microvascular ([1]; 200 mg/kg, 1 × 10^−9 M Ach): 18.8 ± 17.5%
- sodium nitroprusside endothelium-independent relaxation of microvascular ([1]; 200 mg/kg, 1 × 10^−9 M SNP): 28.9 ± 29.5%
- acetylcholine-induced endothelium-dependent relaxation of microvascular ([1]; 200 mg/kg, 1 × 10^−10 M Ach): 9.5 ± 12.0%
- sodium nitroprusside endothelium-independent relaxation of microvascular ([1]; 200 mg/kg, 1 × 10^−10 M SNP): 19.4 ± 3.05%
